{"source": "paper PMC6934184", "about": "“Selective DNA-PKcs inhibition extends the therapeutic index of localized radiotherapy and chemotherapy” (The Journal of Clinical Investigation, 2019)", "molecular_target": "T1, IRAK1 (Homo sapiens, UniProt P51617)", "T1 construct": "purchased Thermo Fisher Scientific (Life Technologies) SelectScreen", "T1 sequence (P51617 whole entry)": "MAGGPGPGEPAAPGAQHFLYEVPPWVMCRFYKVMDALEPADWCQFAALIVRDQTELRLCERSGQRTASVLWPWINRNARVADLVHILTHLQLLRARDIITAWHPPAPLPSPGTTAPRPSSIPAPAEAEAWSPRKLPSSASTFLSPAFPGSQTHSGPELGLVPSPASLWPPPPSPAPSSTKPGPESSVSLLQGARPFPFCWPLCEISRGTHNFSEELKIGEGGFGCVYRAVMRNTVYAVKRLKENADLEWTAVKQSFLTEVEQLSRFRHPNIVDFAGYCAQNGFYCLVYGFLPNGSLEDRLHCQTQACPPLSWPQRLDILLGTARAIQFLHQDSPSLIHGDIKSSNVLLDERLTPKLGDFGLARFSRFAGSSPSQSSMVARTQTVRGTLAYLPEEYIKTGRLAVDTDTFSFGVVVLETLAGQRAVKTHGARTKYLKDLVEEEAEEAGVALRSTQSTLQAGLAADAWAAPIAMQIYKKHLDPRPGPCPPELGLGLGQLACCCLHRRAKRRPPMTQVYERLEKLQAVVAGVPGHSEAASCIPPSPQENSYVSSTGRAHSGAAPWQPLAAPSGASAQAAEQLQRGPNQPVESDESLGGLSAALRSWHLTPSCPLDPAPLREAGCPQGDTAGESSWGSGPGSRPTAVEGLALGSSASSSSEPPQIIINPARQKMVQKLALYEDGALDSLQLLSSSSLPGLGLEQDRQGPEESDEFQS", "experiment": "SelectScreen Adapta", "format": "biochemical", "summary_of_the_method": "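NU5455 was profiled across the SelectScreen Broad panel of kinase activity and binding assays. Z'LYTE reactions such as CSF1R ran at apparent Km ATP, while the Adapta CAMK1 assay used ATP listed as 10. Values are given as percent.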", "data": [{"smiles": "CN(C(=O)CN1CCOCC1)c1ccc2sc3c(-c4cccc5c(=O)cc(N6CC7CCC(C6)O7)oc45)cccc3c2c1", "note": "[NU5455]", "values": [{"measurement": "inhibition at 1 µM", "result": 4, "unit": "%"}]}]}
